PubChem BioAssay AID1963983 (Molecular Pharmacology Branch, DTP, NCI, 2024)
One block for each molecule: values may come before it.

Tested on: 186277-243-T-J2-PDC multi-cell spheroid viability
Assay: Anticancer human tumor 186277-243-T-J2-PDC patient-derived colon adenocarcinoma cell line growth inhibition [PI3K]
Conditions: for IC50: curve of first compound; for viability, T/C: stronger effect = lower value
How it was run: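 Targeted small molecules plus PI3K inhibitors, half-log dose series from Cmax (default top 10 microM), were applied to heterotypic spheroids of cancer cells with HUVEC and MSCs. Viability indicated growth inhibition.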

[1] = second compound 0.0316 µM, first compound 0.0316 µM
[2] = second compound 0.0316 µM, first compound 0.1 µM
[3] = second compound 0.0316 µM, first compound 0.316 µM
[4] = second compound 0.0316 µM, first compound 1 µM
[5] = second compound 0.0316 µM, first compound 3.16 µM
[6] = second compound 0.0316 µM, first compound 10 µM
[7] = second compound 0.1 µM, first compound 0.0316 µM
[8] = second compound 0.1 µM, first compound 0.1 µM
[9] = second compound 0.1 µM, first compound 0.316 µM
[10] = second compound 0.1 µM, first compound 1 µM
[11] = second compound 0.1 µM, first compound 3.16 µM
[12] = second compound 0.1 µM, first compound 10 µM
[13] = second compound 0.316 µM, first compound 0.0316 µM
[14] = second compound 0.316 µM, first compound 0.1 µM
[15] = second compound 0.316 µM, first compound 0.316 µM
[16] = second compound 0.316 µM, first compound 1 µM
[17] = second compound 0.316 µM, first compound 3.16 µM
[18] = second compound 0.316 µM, first compound 10 µM
[19] = second compound 1 µM, first compound 0.0316 µM
[20] = second compound 1 µM, first compound 0.1 µM
[21] = second compound 1 µM, first compound 0.316 µM
[22] = second compound 1 µM, first compound 1 µM
[23] = second compound 1 µM, first compound 3.16 µM
[24] = second compound 1 µM, first compound 10 µM
[25] = second compound 3.16 µM, first compound 0.0316 µM
[26] = second compound 3.16 µM, first compound 0.1 µM
[27] = second compound 3.16 µM, first compound 0.316 µM
[28] = second compound 3.16 µM, first compound 1 µM
[29] = second compound 3.16 µM, first compound 3.16 µM
[30] = second compound 3.16 µM, first compound 10 µM
[31] = second compound 10 µM, first compound 0.0316 µM
[32] = second compound 10 µM, first compound 0.1 µM
[33] = second compound 10 µM, first compound 0.316 µM
[34] = second compound 10 µM, first compound 1 µM
[35] = second compound 10 µM, first compound 3.16 µM
[36] = second compound 10 µM, first compound 10 µM
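Note: spheroids exposed to compounds for seven days before viability reading.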
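Throughout, for viability, T/C: 100% = DMSO vehicle control viability.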

IC50 (second compound 0.0316 µM): 1500 nM
IC50 (second compound 0.1 µM): 1330 nM
IC50 (second compound 0.316 µM): 1080 nM
IC50 (second compound 1 µM): 516 nM
IC50 (second compound 3.16 µM): 304 nM
IC50 (second compound 10 µM): 182 nM
Compound: Cn1ncc(Cl)c1-c1cc(C(=O)NC(CN)Cc2cccc(F)c2)sc1Cl (stereo unspecified) + CC(Nc1ncnc2nc[nH]c12)c1cc2cccc(Cl)c2c(=O)n1-c1ccccc1
viability, T/C [1]: 82.5%
viability, T/C [2]: 83.6%
viability, T/C [3]: 55.5%
viability, T/C [4]: 56.8%
viability, T/C [5]: 46.1%
viability, T/C [6]: 15.4%
viability, T/C [7]: 84.1%
viability, T/C [8]: 90.4%
viability, T/C [9]: 54.2%
viability, T/C [10]: 56.1%
viability, T/C [11]: 44.3%
viability, T/C [12]: 17.5%
viability, T/C [13]: 99.9%
viability, T/C [14]: 86.9%
viability, T/C [15]: 60.9%
viability, T/C [16]: 48.8%
viability, T/C [17]: 44.6%
viability, T/C [18]: 16.1%
viability, T/C [19]: 97.4%
viability, T/C [20]: 78.3%
viability, T/C [21]: 48%
viability, T/C [22]: 43.1%
viability, T/C [23]: 37.1%
viability, T/C [24]: 13.1%
viability, T/C [25]: 83.8%
viability, T/C [26]: 70.6%
viability, T/C [27]: 45%
viability, T/C [28]: 31.8%
viability, T/C [29]: 25.6%
viability, T/C [30]: 5.44%
viability, T/C [31]: 85.1%
viability, T/C [32]: 60.3%
viability, T/C [33]: 39.3%
viability, T/C [34]: 25%
viability, T/C [35]: 18.7%
viability, T/C [36]: 3.49%

IC50 (second compound 0.0316 µM): 2800 nM
IC50 (second compound 0.1 µM): 2380 nM
IC50 (second compound 0.316 µM): 2400 nM
IC50 (second compound 1 µM): 2090 nM
IC50 (second compound 3.16 µM): 1160 nM
IC50 (second compound 10 µM): 339 nM
Compound: Cn1nccc1Nc1nccc(-c2ccn(C(CO)c3ccc(Cl)c(F)c3)c(=O)c2)n1 (stereo unspecified) + CC(Nc1ncnc2nc[nH]c12)c1cc2cccc(Cl)c2c(=O)n1-c1ccccc1
viability, T/C [1]: 82.5%
viability, T/C [2]: 86.9%
viability, T/C [3]: 112%
viability, T/C [4]: 83.7%
viability, T/C [5]: 46.3%
viability, T/C [6]: 23.6%
viability, T/C [7]: 85.3%
viability, T/C [8]: 103%
viability, T/C [9]: 107%
viability, T/C [10]: 89.1%
viability, T/C [11]: 37.2%
viability, T/C [12]: 26.2%
viability, T/C [13]: 94.7%
viability, T/C [14]: 96.1%
viability, T/C [15]: 125%
viability, T/C [16]: 83.1%
viability, T/C [17]: 40.9%
viability, T/C [18]: 23.7%
viability, T/C [19]: 94.3%
viability, T/C [20]: 101%
viability, T/C [21]: 103%
viability, T/C [22]: 75.7%
viability, T/C [23]: 36.3%
viability, T/C [24]: 24.3%
viability, T/C [25]: 106%
viability, T/C [26]: 100%
viability, T/C [27]: 105%
viability, T/C [28]: 53.9%
viability, T/C [29]: 27.6%
viability, T/C [30]: 20.8%
viability, T/C [31]: 88.7%
viability, T/C [32]: 91.4%
viability, T/C [33]: 51%
viability, T/C [34]: 27.5%
viability, T/C [35]: 24.5%
viability, T/C [36]: 15.5%

IC50 (second compound 0.0316 µM): > 100 nM
IC50 (second compound 0.1 µM): > 100 nM
IC50 (second compound 0.316 µM): > 100 nM
IC50 (second compound 1 µM): > 100 nM
IC50 (second compound 3.16 µM): > 100 nM
IC50 (second compound 10 µM): > 100 nM
Compound: Cn1ncnc1[C@H]1c2n[nH]c(=O)c3cc(F)cc(c23)N[C@@H]1c1ccc(F)cc1 + CC(Nc1ncnc2nc[nH]c12)c1cc2cccc(Cl)c2c(=O)n1-c1ccccc1
viability, T/C (second compound 0.0316 µM, first compound 0.000316 µM): 88.3%
viability, T/C (second compound 0.0316 µM, first compound 0.001 µM): 94.7%
viability, T/C (second compound 0.0316 µM, first compound 0.00316 µM): 86.8%
viability, T/C (second compound 0.0316 µM, first compound 0.01 µM): 100%
viability, T/C [1]: 104%
viability, T/C [2]: 88.9%
viability, T/C (second compound 0.1 µM, first compound 0.000316 µM): 93.2%
viability, T/C (second compound 0.1 µM, first compound 0.001 µM): 111%
viability, T/C (second compound 0.1 µM, first compound 0.00316 µM): 94.9%
viability, T/C (second compound 0.1 µM, first compound 0.01 µM): 103%
viability, T/C [7]: 99.9%
viability, T/C [8]: 99.3%
viability, T/C (second compound 0.316 µM, first compound 0.000316 µM): 93.5%
viability, T/C (second compound 0.316 µM, first compound 0.001 µM): 107%
viability, T/C (second compound 0.316 µM, first compound 0.00316 µM): 96.1%
viability, T/C (second compound 0.316 µM, first compound 0.01 µM): 92.5%
viability, T/C [13]: 91.3%
viability, T/C [14]: 85%
viability, T/C (second compound 1 µM, first compound 0.000316 µM): 89.3%
viability, T/C (second compound 1 µM, first compound 0.001 µM): 95.5%
viability, T/C (second compound 1 µM, first compound 0.00316 µM): 114%
viability, T/C (second compound 1 µM, first compound 0.01 µM): 97.4%
viability, T/C [19]: 87%
viability, T/C [20]: 84.4%
viability, T/C (second compound 3.16 µM, first compound 0.000316 µM): 108%
viability, T/C (second compound 3.16 µM, first compound 0.001 µM): 107%
viability, T/C (second compound 3.16 µM, first compound 0.00316 µM): 102%
viability, T/C (second compound 3.16 µM, first compound 0.01 µM): 84.5%
viability, T/C [25]: 101%
viability, T/C [26]: 99.1%
viability, T/C (second compound 10 µM, first compound 0.000316 µM): 99.6%
viability, T/C (second compound 10 µM, first compound 0.001 µM): 90.6%
viability, T/C (second compound 10 µM, first compound 0.00316 µM): 84.4%
viability, T/C (second compound 10 µM, first compound 0.01 µM): 86%
viability, T/C [31]: 88.6%
viability, T/C [32]: 85%
